Legend:
[1] = biological target: T1, AMG-Z (AMG(1-526aa)::Z, Aspergillus niger glucoamylase fused to Z domain of Staphylococcus aureus protein A, SEQ ID NO 25) (Aspergillus niger, UniProt P69328); assay: Biacore SPR, binding of DAP AMG-Z to acarbose ligand (biotin-acarbose on SA chip)
T1 construct: made in house; host or cells: Aspergillus oryzae (transformant JaL1171 of host BECh2)
Excerpt: The commercialised surface plasmon resonance (SPR) technology for real time monitoring biomolecular binding event is used to measure the binding affinities for the prepared DAP candidates. The general principle of this technology is that a SPR sensor chip measures changes in refractive index, and the changes in refractive index correlate to changes in mass in the aqueous layer close to the sensor surface. When target molecules in solution bind to ligands, immobilised on the sensor surface, the mass increases, and when they dissociate from the ligands the mass decreases. This principle facilitates a continuous, real time monitoring of the association and dissociation of interacting molecules. The graphical presentation of the relationship provides quantitative information in real time on the binding specificity, active concentration of molecule in a sample, reaction kinetics and affinity. […]
Immobilisation occurred by direct covalent coupling to the surface (using the Amine Coupling Kit, BiaCore, GE Health Care) or via a capturing molecule as prescribed by the manufacturer (BiaCore, GE Health Care). The amount of coupled target was quantified and expressed in Refractive Units (RU). […]

[2] = tested on: VhhRR6(R2)-Z (variable region of Llama single chain antibody against RR6 fused to Z domain of Staphylococcus aureus protein A, SEQ ID NO 28); assay: Biacore SPR, binding of DAP VhhRR6(R2)-Z to Reactive Red 6 ligand (biotin-Reactive Red 6 on SA chip); settings: Table 1 (summary, rounded)
Excerpt: (§1) The commercialised surface plasmon resonance (SPR) technology for real time monitoring biomolecular binding event is used to measure the binding affinities for the prepared DAP candidates. The general principle of this technology is that a SPR sensor chip measures changes in refractive index, and the changes in refractive index correlate to changes in mass in the aqueous layer close to the sensor surface. When target molecules in solution bind to ligands, immobilised on the sensor surface, the mass increases, and when they dissociate from the ligands the mass decreases. This principle facilitates a continuous, real time monitoring of the association and dissociation of interacting molecules. The graphical presentation of the relationship provides quantitative information in real time on the binding specificity, active concentration of molecule in a sample, reaction kinetics and affinity.
In order to evaluate the binding affinities for both of the binding affinities present in the DAP either IgG or the capturing ligand had to be immobilized onto the sensor chip. For IgG rabbit anti-Mannanase was used and for the ligand the chip was coated with streptavidin and the ligand was then immobilized via biotin linked to the appropriate ligand.
In order to measure the binding to RR6 and acarbose the following compounds were prepared; biotin-linked acarbose and biotin-linked RR6.
The mixture was stirred at RT for 30 min. […]
(§2) The DAP candidates were analysed for binding to the capturing ligand sensor chip and the target biomolecule sensor chip respectively. […]
Immobilisation occurred by direct covalent coupling to the surface (using the Amine Coupling Kit, BiaCore, GE Health Care) or via a capturing molecule as prescribed by the manufacturer (BiaCore, GE Health Care). The amount of coupled target was quantified and expressed in Refractive Units (RU).
Interactions were monitored by injecting samples (20 μl/min) over the prepared sensor surface of the chip. Unless stated otherwise, the binding was assessed in 10 mM sodium acetatbuffer pH 5.0 at room temperature. […]

[3] = tested on: VhhRR6(R2)-Z + IgG (variable region of Llama single chain antibody against RR6 fused to Z domain of Staphylococcus aureus protein A, SEQ ID NO 28, with IgG …); assay: Biacore SPR, binding of DAP VhhRR6(R2)-Z to Reactive Red 6 ligand in the presence of IgG; settings: Table 1 footnote b; VhhRR6(R2)-Z mixed with IgG before loading to the Biacore
Excerpt: as §1, with “affinity. […]” for “affinity.”
as §2
Immobilisation occurred by direct covalent coupling to the surface (using the Amine Coupling Kit, BiaCore, GE Health Care) or via a capturing molecule as prescribed by the manufacturer (BiaCore, GE Health Care). The amount of coupled target was quantified and expressed in […] (RU). […]

T1 sequence (P69328 25-526, added parts left off): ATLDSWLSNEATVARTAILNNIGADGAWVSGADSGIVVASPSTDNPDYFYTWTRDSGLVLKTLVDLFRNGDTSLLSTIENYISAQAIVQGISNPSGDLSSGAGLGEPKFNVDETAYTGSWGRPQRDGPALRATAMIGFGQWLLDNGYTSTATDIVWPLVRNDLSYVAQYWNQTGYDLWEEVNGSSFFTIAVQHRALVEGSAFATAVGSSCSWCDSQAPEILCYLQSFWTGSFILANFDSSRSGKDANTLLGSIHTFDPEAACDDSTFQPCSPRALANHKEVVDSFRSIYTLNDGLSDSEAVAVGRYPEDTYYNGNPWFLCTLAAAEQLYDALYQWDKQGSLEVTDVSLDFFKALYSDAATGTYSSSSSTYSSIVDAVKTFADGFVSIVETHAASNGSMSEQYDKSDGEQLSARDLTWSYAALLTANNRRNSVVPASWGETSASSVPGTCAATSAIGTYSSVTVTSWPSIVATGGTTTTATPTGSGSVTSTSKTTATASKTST

In the case of `C[C@H]1O[C@H](O[C@H]2[C@H](O)[C@@H](O)[C@@H](O[C@H]3[C@H](O)[C@@H](O)C(O)O[C@@H]3CO)O[C@@H]2CO)[C@H](O)[C@@H](O)[C@@H]1N[C@H]1C=C(CO)[C@@H](O)[C@H](O)[C@H]1O` (stereo partly shown) [Acarbose], the kon ([1]; pH 5, read-out: Ligand binding ka) is reported as 10000 M⁻¹ s⁻¹ and the koff ([1]; pH 5, read-out: Ligand binding kd) is reported as 0.002 s⁻¹.
Molecule Reactive Red 6 [RR6] has a Kd [2] of 0.2 µM, a Ligand binding ka [2] of 20000 M⁻¹ s⁻¹ and a Ligand binding kd [2] of 0.004 s⁻¹. The Kd [3] was 10 µM and the “binding after injection is stopped” value [3] was “the binding is broken completely as soon as the injection is stopped”.
